Measured values reported in article PMC9124866, “Structure-Activity Relationships of Dopamine Transporter Pharmacological Chaperones” (Frontiers in Cellular Neuroscience, 2022).
Structures can show the parent of a compound that is named as a salt. Where two headings read alike, the source gives them in different places.

Key:
YFP-HA-βlac-DAT [1] = target: T1, YFP-HA-βlac-DAT (Homo sapiens, UniProt Q01959); experiment: β-lactamase (βlac) surface expression assay; type: cell-based; conditions: assumed effective EMax
Description: The βlac surface expression assay was performed by following the method outlined in [Lam et al. (2013)] and [Beerepoot et al. (2015], [2016)]. The assay substrate nitrocefin (BD biosciences) was dissolved in dimethyl sulfoxide (DMSO) at a concentration of 10 mM and frozen at −80°C. Immediately before use, it was thawed and diluted to a final concentration of 100 μM in phosphate buffered saline (PBS). Cells (1 × 10^5/well) were seeded into a poly-D-lysine-coated 48-well plate and incubated for 24 h, prior to drug treatment. Drugs were added to individual wells at varying concentrations and incubated for 16 h. Subsequently, the media was aspirated, and the cells were washed twice with PBS. After removal of the final PBS wash, 200 μL of the nitrocefin solution was added to each well and the absorbance was immediately read. The EPOCH microplate spectrophotometer (BioTek) was used to measure absorbance (486 nm) for each well every minute for 30 min. The rate of reaction (slope of the curve) was used as the readout for the assay ([Beerepoot et al., 2015]). To determine suitable concentration ranges for each drug, they were dissolved in PBS or DMSO at the highest concentration possible. From here, the solutions were serial diluted 1/10 to yield 8 different concentrations. βLAC cells were then treated with the varying drug concentrations and cell viability was recorded using light microscopy. For additional measure, nitrocefin was added and the absorbance was read. For certain cases, Trypan Blue was used to quantitatively differentiate increased cell death from reduced cell division. […] Five or six doses were generally used in subsequent dosing experiments, starting at the highest non-toxic concentration.
Data analysis was performed using GraphPad Prism (GraphPad Software, La Jolla, CA). Linear regression analysis was performed on βLAC time points to determine the slope, thus the rate of reaction, for comparison. Furthermore, the slope was also used to determine the degree of dopamine uptake in the dopamine uptake assays. Non-linear regression, fitting to the log(agonist) vs. response and log(inhibitor) vs. response model curve, was used to determine dose-response relationships of surface expression and uptake assays, respectively. One-way ANOVA with Dunnett’s post hoc-test was used for the β-lactamase assay and one-way ANOVA with Bonferroni correction was used for western blot analysis.
Among these were RTI-1, RTI-2, RTI-5, RTI-6, RTI-11, RTI-20, and PAL-1007. […] The EMax values of all the analyzed drugs are included in Figure 1.
The pharmacological chaperone ability of the 15 ibogaine and tryptamine analogs, shown in Figure 3, were measured using the βlac surface expression assay. HEK cells expressing YFP-HA-βlac-DAT were incubated overnight with these compounds at concentrations varying by log and half-log dilutions, starting at 100 μM final concentration. […] Furthermore, it was important to determine whether the β-carboline analogs could also elicit a chaperone effect because they are not classified as DAT ligands ([Cao et al., 2007]). […] Removing the nitrogen from the ring reduced efficacy as observed with frovatriptan (103 ± 1.4%). […] Evodiamine (54 ± 1.7%) had no chaperone ability and caused a substantial reduction in the surface expression of DAT. Dose-response curves were generated to assess the pharmacological chaperone potencies of select compounds (Figure 4).

WT DAT (YFP-HA-DAT) = target: T2, WT DAT (YFP-HA-DAT) (Homo sapiens, UniProt Q01959); experiment: Western blot of mature WT DAT protein levels; type: cell-based; conditions: overnight 100 μM
T2 construct: expressed in transfected cells; host or cells: HEK293
Description: (§1) Cells (1 × 10^6 cells/well) were seeded onto a 6-well plate and incubated for 24 h. Cells were then treated with drugs and incubated for 16 h. After the incubation period, cells were lysed in RIPA buffer supplemented with protease inhibitors (working concentrations: pepstatin A, 5 μg/mL; leupeptin, 10 μg/mL; aprotinin, 1.5 μg/mL; benzamidine, 0.1 μg/mL; PMSF, 0.1 mM) on ice. At 4°C, cell lysates were gently shaken for 15 min followed by centrifugation at 15,000 rpm for 15 min to pellet debris. The Pierce BCA protein assay kit (Thermo Fisher Scientific, Canada) was used to determine the protein concentration of the supernatant. To reach a concentration of 40 μg of protein per 20 μL, samples were diluted in fresh RIPA buffer with 12.5% Laemmli sample buffer and 2.5% β-Mercaptoethanol prior to being heated to 55°C. The protein was then loaded on a 7.5 or 10% SDS-PAGE gel and run at 100 V for approximately an hour or until the dye front reached the bottom of the gel. Next, protein was transferred to a PVDF membrane at 22 V for 16 h or 100 V for 1 h. Blots were blocked with LI-COR blocking buffer for 1 h and incubated for 1 h at room temperature with rabbit anti-GFP (1:1,000 dilution; Life Technologies, cat#A11122). After washing three times with TBST, blots were incubated with goat anti-rabbit IRDye-680RD secondary antibody (1:15,000; LI-COR, cat#926-68071). As a loading control, blots were incubated with mouse anti-GAPDH (1:5,000, Sigma-Aldrich, Canada, cat#G8795) prior to secondary antibody goat anti-mouse IRDye-800GR (1:5,000 dilution, Rockland, Limerick, PA, cat#610-132-007). All antibodies were diluted in LI-COR blocking buffer. Additionally, REVERT total protein staining (LI-COR, Lincoln, NE) was used as a loading control. […] Mature, fully glycosylated DAT (mDAT = 110 kDa) and immature, ER-resident DAT (iDAT = 75 kDa) were visualized using the Odyssey Imaging System (LI-COR, Lincoln, NE) and Image Studio Version 5.2 software (Supplementary Figure 1).
(§2) We next assessed whether drugs that increase DAT surface expression also increase total protein levels of DAT. Cells expressing YFP-HA-DAT were incubated with select test compounds and DAT protein levels were examined by western blot. The effects of the compounds were assessed on WT DAT and K590A DAT. The K590A mutant is a well-characterized ER-retained, trafficking-deficient DAT mutant ([Miranda et al., 2004]) that can be rescued by pharmacological chaperones ([Beerepoot et al., 2016]).
(§3) FIGURE 5 Effect of noribogaine, tetrahydroharmine, PAL-594, bicifadine, and RTI-20 on WT and K590A DAT expression. […] (B) Quantification of WT mDAT protein levels. […] (D) Quantification of K590A mDAT protein levels. […]

K590A DAT = target: T3, K590A DAT (Homo sapiens, UniProt Q01959, K590A); experiment: Western blot of mature K590A DAT protein levels; type: cell-based; conditions: overnight treatment
T3 construct: expressed in transfected cells; host or cells: HEK293
Description: as §1, §2, §3

YFP-HA-βlac-DAT [2] = target: T1, YFP-HA-βlac-DAT; set-up: method as in Beerepoot et al., 2016; conditions: previous experiments; ref Beerepoot et al., 2016; cited from earlier work
DAT [3] = target: T4, DAT (Homo sapiens, UniProt Q01959); conditions: read-out: Ki, DAT binding; ref Carroll et al., 2009; cited from earlier work
T4 construct: expressed in transfected cells

DAT [4] = target: T4, DAT; conditions: read-out: IC50, dopamine uptake inhibition; ref Carroll et al., 2009; cited from earlier work
DAT [5] = target: T4, DAT; experiment: Dopamine uptake inhibition dose response of hit compounds (Figure 6); type: cell-based; conditions: doses 1 nM to 100 μM, normalized to vehicle
Description: Dopamine uptake inhibition was conducted using the Neurotransmitter Transporter Uptake Assay Kit (Molecular Devices, prod#R8173). Cells (1 × 10^5/well) were seeded into 96-well plates and incubated for 24 h. The cells were subjected to overnight drug treatment. The following day, wells were washed and incubated for 30 min with a mixture of 1X Hank’s Balanced Salt Solution (HBSS) and 0.1% Bovine Serum Albumin (BSA) Buffer. Dopamine uptake inhibitors were added during the incubation period. Following the incubation, the fluorescent dye was added, and the plate was immediately transferred to the bottom-read fluorescence microplate reader (Spectramax M3, Molecular Devices) for kinetic read-mode. The assay reads the amount of fluorescent activity which increases as fluorescent dye molecules are transported into the cells by the DAT. The read-out for this assay is the slope which equals the fluorescent measurements/time, ultimately denoting the uptake rate.
Data analysis was performed using GraphPad Prism (GraphPad Software, La Jolla, CA). Linear regression analysis was performed on βLAC time points to determine the slope, thus the rate of reaction, for comparison. Furthermore, the slope was also used to determine the degree of dopamine uptake in the dopamine uptake assays. […]

[6] = HEK293, read-out: EMax (%), WT DAT surface expression, HEK cells expressing YFP-HA-βlac-DAT, overnight (16 h) incubation, up to 100 μM, normalized to vehicle
[7] = HEK293, HEK cells expressing YFP-HA-βlac-DAT, overnight (16 h) incubation, up to 100 μM, normalized to vehicle, read-out: EMax (%), WT DAT surface expression

T1 sequence (Q01959 1-171 limits assumed): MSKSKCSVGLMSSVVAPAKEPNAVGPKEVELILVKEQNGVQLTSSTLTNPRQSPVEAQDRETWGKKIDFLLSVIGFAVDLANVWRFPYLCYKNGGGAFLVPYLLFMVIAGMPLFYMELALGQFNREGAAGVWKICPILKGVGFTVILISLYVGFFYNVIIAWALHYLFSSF
T1 sequence (Q01959 237-620 limits assumed): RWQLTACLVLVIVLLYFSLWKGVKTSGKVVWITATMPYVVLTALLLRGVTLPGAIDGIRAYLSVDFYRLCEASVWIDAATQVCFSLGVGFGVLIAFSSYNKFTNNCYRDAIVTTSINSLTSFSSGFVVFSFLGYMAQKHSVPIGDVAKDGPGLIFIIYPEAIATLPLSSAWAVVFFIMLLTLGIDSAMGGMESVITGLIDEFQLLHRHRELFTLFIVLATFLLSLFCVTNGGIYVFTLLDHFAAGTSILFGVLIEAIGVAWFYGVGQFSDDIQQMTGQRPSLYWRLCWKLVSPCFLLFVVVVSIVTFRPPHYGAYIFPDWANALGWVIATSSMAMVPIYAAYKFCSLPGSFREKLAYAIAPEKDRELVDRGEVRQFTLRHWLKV
T4 sequence (Q01959 whole entry): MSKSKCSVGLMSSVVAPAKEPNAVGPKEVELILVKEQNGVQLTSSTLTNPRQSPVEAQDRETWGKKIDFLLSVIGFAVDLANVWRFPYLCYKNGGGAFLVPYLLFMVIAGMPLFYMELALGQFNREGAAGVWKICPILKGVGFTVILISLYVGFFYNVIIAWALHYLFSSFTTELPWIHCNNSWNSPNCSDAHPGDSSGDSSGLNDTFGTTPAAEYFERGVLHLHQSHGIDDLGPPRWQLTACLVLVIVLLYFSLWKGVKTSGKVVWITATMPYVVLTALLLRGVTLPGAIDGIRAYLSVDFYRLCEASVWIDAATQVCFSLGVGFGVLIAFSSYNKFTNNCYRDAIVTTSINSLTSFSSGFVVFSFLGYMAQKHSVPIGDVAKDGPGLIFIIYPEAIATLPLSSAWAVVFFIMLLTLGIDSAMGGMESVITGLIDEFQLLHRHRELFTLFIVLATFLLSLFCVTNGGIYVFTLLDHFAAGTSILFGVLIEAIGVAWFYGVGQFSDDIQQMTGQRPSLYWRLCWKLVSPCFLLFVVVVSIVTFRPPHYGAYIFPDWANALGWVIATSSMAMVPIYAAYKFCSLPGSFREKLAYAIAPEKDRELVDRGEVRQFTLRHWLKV
T2 sequence (Q01959 whole entry): as above
T3 sequence (Q01959 whole entry K590A): as the sequence (Q01959 whole entry) above, with K590A counted along it

| Compound | Emax (YFP-HA-βlac-DAT [1]; [6]) | mature WT DAT (mDAT) protein levels (WT DAT (YFP-HA-DAT)) | K590A DAT (mDAT) protein levels (K590A DAT) | previously reported increase of WT DAT surface expression (EMax) (YFP-HA-βlac-DAT [2]) | Emax (YFP-HA-βlac-DAT [1]; [7]) | further results |
| --- | --- | --- | --- | --- | --- | --- |
| Cc1ccc(C23CNCC2C3)cc1 (stereo not drawn) [Bicifadine, bicifadine] | 149 ± 15% | significantly increase | statistically significant effect |  |  |  |
| CC(NC(C)(C)C)C(=O)c1cccc(Cl)c1 (stereo not drawn) [Bupropion, Bupropion hydrochloride, reference compound] | 144 ± 7.7% |  |  | 137% |  |  |
| CC1NCCOC1c1cccc(Cl)c1 (stereo not drawn) [PAL-594] |  | significantly increase | statistically significant effect |  | 166 ± 8.7% |  |
| Cc1ccc(C(=O)C(C)NC(C)(C)C)cc1 (stereo not drawn) [RTI-5] |  |  |  |  | 140 ± 5.5% | Ki (DAT [3]): > 10 µM; IC50 (DAT [4]): 6.84 µM |
| CCCC(NC(C)(C)C)C(=O)c1cccc(Cl)c1 (stereo not drawn) [RTI-12] |  |  |  |  | 113 ± 6.3% | maximal dopamine uptake inhibition (DAT [5]): 96% |
| ibogaine [reference compound] |  |  |  | 187% |  | EMax (%), WT DAT surface expression (YFP-HA-βlac-DAT [1]; HEK cells expressing YFP-HA-βlac-DAT, overnight (16 h) incubation, up to 100 μM, normalized to vehicle): 222 ± 7.9% |
